Measured values taken from patent publication US12233056B2, “Lysyl oxidase inhibitors for treating myeloid malignancies” (Syntara Limited, priority 2022, dated 2025).

Legend:
[1] = test system: in vitro co-cultured, patient derived, MSC/HSC cells; experiment: Erythroid differentiation in in vitro co-cultured, patient derived MSC/HSC cells; type: cell-based, human; conditions: 2 μM PXS-5505, 100 nM 5-AZA daily; flow cytometry after 14 days; n=3; FIG. 1
Source text: Healthy CD34+ cells were isolated from hip replacement surgery bone specimen (old CD34+ cells) or collected by iliac crest puncture of healthy volunteers (young CD34+ cells). Approval for collection of patient samples was given by the Institutional Review Board of the Medical Faculty Mannheim, University of Heidelberg, Germany, in accordance with the declaration of Helsinki. All patients were informed and provided written consent for sample collection. Mononuclear cells (MNC) were isolated from bone marrow by Ficoll density gradient. CD34+ cells from MNC were isolated using MACS enrichment columns (Miltenyi Biotec, Bergisch Gladbach, Germany) according to the manufacturer's instructions as described. Purity of the CD34+ populations were confirmed by FACS analysis to be >95%. These were then viably frozen and thawed immediately before xenotransplantation.
Mesenchymal stromal cells (MSC) were isolated from residual diagnostic material and selected via their plastic adherence properties in culture. MSC were expanded in NH-Expansion medium (Miltenyi Biotec) and cultured to a maximum of 4 passages. Ex-vivo expanded MSCs were FACS analyzed to confirm adherence to the minimal criteria for defining multipotent mesenchymal stromal cells as described in [Medyouf, 2014]. […]

[2] = test system: erythroid differentiation (the CD235a+ and CD45− population) in the bone marrow collected from xenotransplanted mice; experiment: Xenotransplantation model: erythroid differentiation from bone marrow of xenotransplanted mice; type: in vivo; conditions: 5-AZA 75 mg/m2 5+2 schedule, 3 cycles; PXS-5505 30 mg/kg every 48 h; 3 months; FIG. 2
Experimental: Female immunocompromised mice (NSG and NSGS, Jackson Laboratory) aged 6-8 week old were sub-lethally irradiated (200 cGy) before intrafemoral injections with a mix of CD34+ and MSCs cells (1×10^5:5×10^5) from primary myelofibrosis patients (with grade 3 fibrosis) as described previously [Medyouf, 2014]. The mice were treated with 5-AZA (75 mg/m^2 5+2 schedule, 3 cycles in total) and/or PXS-5505 (30 mg/kg every 48 h for the duration of 5-AZA treatment) for 3 months. At endpoint human CD45+ cells were FACS-sorted from mouse bone marrow. The CD45+ cells were differentiated in the medium supplemented with 5 U/mL EPO, 100 ng/mL SCF and 5 ng/mL IL-3 for 21 days followed by flow cytometry analysis for CD235a and CD45 markers as described previously.
Furthermore, it presents the rescue erythroid differentiation for a variety of different disease subtypes of myelodysplastic syndrome, chronic myelomonocytic leukemia and acute myeloid leukemia.

## NC/C=C(\F)CS(=O)(=O)c1cccc2cccnc12 [PXS-5505]
[1]
  erythroid differentiation (CD235a+, CD45− cells): could rescue erythropoiesis
[2]
  erythroid differentiation (CD235a+ and CD45− population) in bone marrow from xenotransplanted mice: could rescue erythropoiesis
